Results on one molecule are retold here after paper PMC9549030, “Structural basis for specific inhibition of the deubiquitinase UCHL1” (Nature Communications, 2022).

SMILES strings stand for the structures.

Test [1] concerns the target T1, UCHL1 (Homo sapiens, UniProt P09936).
T1 sequence (P09936 1-223): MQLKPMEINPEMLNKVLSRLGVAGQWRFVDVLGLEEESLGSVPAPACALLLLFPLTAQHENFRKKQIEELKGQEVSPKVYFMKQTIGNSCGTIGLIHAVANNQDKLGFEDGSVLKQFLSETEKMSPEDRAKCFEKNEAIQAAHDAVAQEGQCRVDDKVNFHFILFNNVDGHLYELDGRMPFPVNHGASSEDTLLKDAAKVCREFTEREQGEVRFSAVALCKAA
As to the kind of experiment: kobs/[I] kinetic assay. The class given is biochemical. On the set-up: kobs: unit not given here. The note with it: Figure 3c right panel. Here is the method: Reactions were performed in 384 well plates as above. Compound (5 µL of a 4x stock in reaction buffer H supplemented with 2.5 mM TCEP; varying final concentrations ranging from 78 nM to 200 µM) and Ub-Rhodamine 110 (5 µL of a 4x stock in buffer H supplemented with 2.5 mM TCEP; final concentration: 50 nM) were mixed in a 1:1 ratio.

A further test relates to HEK293 cells. As to the kind of experiment: Cellular activity-based protein profiling (in-gel fluorescence). Format: cell-based, human. The note with it: 0.1 and 1 µM; 24 h. Here is the method:
Cells (7 × 10^5) were seeded in six-well plates and cultivated for 48 h. Cells were then incubated in fresh DMEM supplemented with compound or DMSO for 24 h. The cells were washed with ice-cold PBS and harvested in 200 µL ABP lysis buffer as described above. […] Samples were separated by SDS-PAGE and analyzed for fluorescent protein-compound conjugates as described above.

In test [2] the target is T1, UCHL1. As to the kind of experiment: Jump-dilution assay. Format: biochemical. The note with it: 625 nM GK13S 2 h, then diluted 100-fold. As for the experimental part:
Reactions were performed in similar 384 plates as above in a final volume of 20 µL. […] Parts of this solution were diluted at 1:50 at different time points with buffer H. All samples were then diluted 1:2 with 100 nM Ub-Rho (buffer H, final concentration in well 50 nM) and fluorescence was recorded as described above.

For `C#CCCCNC(=O)c1ccc(-n2cnc(NC(=O)[C@H]3CCN(C#N)C3)c2)cc1` [GK13S], the kobs on UCHL1 [1] (c(GK13S) 0.078125) came out at 0.000109; on UCHL1 [1] (c(GK13S) 0.15625), 0.000197; on UCHL1 [1] (c(GK13S) 0.3125), 0.000258; on UCHL1 [1] (c(GK13S) 0.625), 0.000456; on UCHL1 [1] (c(GK13S) 1.25) it was 0.000882; on UCHL1 [1] (c(GK13S) 2.5) it was 0.001558. Also, the “labeling of endogenous proteins in intact cells” value in the test with HEK293 cells is given as “strong signal for a band of ~30 kDa”. In addition, the “reversibility of inhibition after jump dilution” value on UCHL1 [2] is “inhibition was sustained”.
